Read-outs that look alike come from different tables or passages of the source.
What was measured:
[1] = molecular target: T1, hGPR65 (Homo sapiens, UniProt Q8IYL9); experiment: cAMP detection (Lance Ultra), GPR65 KO HeLa reconstituted with hGPR65; 21K screen dose confirmation; format: cell-based; settings: HeLa GPR65 KO + hGPR65, pH 7.1, 30 min, normalized to DMSO and 100 μM forskolin; read-out: WT EC50
T1 construct: expressed in transfected cells; host or cells: HeLa (ATCC CCL-2), lentiviral transduction, pLX317
T1 sequence (Q8IYL9 whole entry): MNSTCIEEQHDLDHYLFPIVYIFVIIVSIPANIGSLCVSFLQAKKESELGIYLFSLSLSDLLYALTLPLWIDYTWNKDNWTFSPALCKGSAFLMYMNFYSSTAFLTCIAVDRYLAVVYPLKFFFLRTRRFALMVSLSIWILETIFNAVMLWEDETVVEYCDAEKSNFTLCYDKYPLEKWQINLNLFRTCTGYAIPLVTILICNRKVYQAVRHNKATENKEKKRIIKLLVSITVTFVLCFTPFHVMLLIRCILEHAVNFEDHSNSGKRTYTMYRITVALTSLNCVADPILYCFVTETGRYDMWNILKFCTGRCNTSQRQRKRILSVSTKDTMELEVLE
Procedure: (§1) The Lance Ultra cAMP Kit (PerkinElmer, TRF0264) was used for cAMP detection, and included the following reagents: ULight anti-cAMP antibody, Eu-cAMP tracer, 7.5% BSA Stabilizer solution, and cAMP detection buffer. Stimulation buffer was prepared as described by the kit manufacturer as follows: Hanks buffered saline solution (HBSS, Life Technologies, 14025-126) containing 0.5 mM IBMX (3-isobutyl-1-methylxanthine, Sigma-Aldrich, I7018) and buffered with 1 M Hepes (15630-080). Stimulation buffer was then adjusted to pH 7.1 using 12 N HCl. HeLa cells were lifted using Versene and then suspended at 2.5 × 10^5 cells/ml in stimulation buffer. Cells were then plated at 20 μl per well (5000 cells per well) in white, opaque OptiPlate 384-well MicroPlates (PerkinElmer, 6007299) using a Thermo Fisher Scientific Combi liquid dispenser. Compounds, stored at 5 mM in DMSO for the primary screen, or in a range of concentrations from 39 μM to 20 mM for dose curves, were transferred by the CyBio CyBi-Well Vario pin transfer tool with 100-nl pins (V&P FP1NS50H, 50-nl slot, 0.457-mm diameter, hydrophobic coated), into each assay well, 100 nl per well for a final assay concentration of 25 μM for the primary screen, or 195 nM to 100 μM for dose curves. Assay plates were then incubated at RT for 30 min. Eu-cAMP tracer was diluted 1:33 into detection buffer and the final solution then distributed into assay wells, 5 μl per well. ULight anti-cAMP antibody was diluted 1:100 into detection buffer, then distributed into assay wells, also 5 μl per well. Assay plates were then incubated at RT in the dark for 1 hour. Eu-cAMP tracer and Förster resonance energy transfer (FRET) emissions were then read using a PerkinElmer EnVision Multimode plate reader (ENVISION21040010), exciting each well at 320 nm [UV2 (TRF) 320 filter] and reading emissions at 615 nm (Europium 615 filter) and 665 nm (APC665 filter). Data analysis was performed using Genedata Screener and GraphPad Prism.
(§2) HeLa KO cell lines were generated using the px330 plasmid CRISPR system as previously described ([18]). Briefly, HeLa cells were transfected with a Cas9 vector containing a gene-specific single-guide RNA to target the GPR65 coding exon. Forty-eight to 72 hours after transfection, single clones were obtained through limiting dilution and then sequenced to validate the KO. Reconstituted cell lines were produced by transducing KO cells with empty lentivirus or lentivirus containing hGPR65 or mGPR65. After 48 hours, cells were treated with puromycin (3 μg/ml; InvivoGen, ant-pr-1) and resistant cells were used in experiments.

[2] = test system: GPR65 KO HeLa cells + pLX empty vector; experiment: cAMP detection, GPR65 KO HeLa + empty pLX vector (null control); format: cell-based, human; settings: HeLa GPR65 KO + pLX, pH 7.1, 30 min, normalized to DMSO and 100 μM forskolin
Procedure: as §1, §2

[3] = molecular target: T1, hGPR65; experiment: cAMP detection in HeLa expression cell line, hGPR65; format: cell-based; settings: for Emax: HeLa, relative to 100uM forskolin (100%) and DMSO (0%), read-out: hGPR Max Activity %; for EC50: read-out: hGPR EC50
How it was run: (§3)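 Compound was dispensed from a 10 mM DMSO stock, and puromycin-selected HeLa lines carrying lentiviral V5-tagged receptor were added at 1500 cells/well in pH 7.2 stimulation buffer. After 30 min stimulation at room temperature, cells were lysed and detection ran 1 h in the dark before cAMP TR-FRET reading.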

[4] = molecular target: T2, mGPR65 (Mus musculus, UniProt Q61038); experiment: cAMP detection in HeLa expression cell line, mGPR65; format: cell-based; settings: for Emax: HeLa, relative to 100uM forskolin (100%) and DMSO (0%), read-out: mGPR Max Activity %; for EC50: read-out: mGPR EC50
T2 construct: expressed in transfected cells; host or cells: HeLa (ATCC CCL-2), lentiviral transduction, pLX317
T2 sequence (Q61038 whole entry): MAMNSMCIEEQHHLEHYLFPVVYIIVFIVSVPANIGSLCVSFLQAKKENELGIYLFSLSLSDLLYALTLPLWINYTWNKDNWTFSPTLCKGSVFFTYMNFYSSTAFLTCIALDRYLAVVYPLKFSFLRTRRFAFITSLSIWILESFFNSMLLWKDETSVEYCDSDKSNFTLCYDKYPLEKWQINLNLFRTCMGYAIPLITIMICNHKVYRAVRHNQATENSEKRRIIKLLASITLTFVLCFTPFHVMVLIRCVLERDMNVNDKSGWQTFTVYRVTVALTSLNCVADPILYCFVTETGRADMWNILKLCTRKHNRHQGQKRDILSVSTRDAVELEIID
How it was run: as §3

[5] = test system: GFP-expressing HeLa cells; experiment: cAMP detection in HeLa expression cell line, GFP control; format: cell-based, human; settings: Homo sapiens, HeLa; for Emax: relative to 100uM forskolin (100%) and DMSO (0%), read-out: GFP Max Activity %
Procedure: HeLa stable expression cell lines were produced by lentiviral transduction. Briefly, lentiviral plasmids for each GPCR with a C-terminal V5 Tag ([…]) were made in a pLX317 backbone using competent Escherichia coli (New England Biolabs, C3050H). Lenti-X 293 T (Takara, 632810) cells were transfected with the lentiviral plasmids to produce virus. Low-passage HeLa cells (American Type Culture Collection, CCL-2) were then transduced with lentivirus. After 48 hours, HeLa cells were cultured under selection with puromycin (3 μg/ml) and allowed to recover and expand before storing stocks in liquid nitrogen.
cAMP was measured in cells using the Lance Ultra cAMP Kit. HeLa cells were cultured under puromycin (3 μg/ml) selection. One day before the experiment, cells were seeded in T75 flasks and allowed to adhere overnight. On the day of the experiment, cells were washed twice with Dulbecco’s PBS and lifted using prewarmed 1× versene solution (Gibco, 15040066). Cells were counted in HBSS (Gibco, 14025092) and then resuspended in stimulation buffer prepared according to the manufacturer’s instructions and adjusted to pH 7.2 using 1 M sodium hydroxide. Cells were added to the plate at a density of 1500 cells per well in white opaque 384-well assay ready microplates containing 100 nl of 10 mM compound in DMSO. Cells were stimulated for 30 min at RT, then lysed and incubated with detection reagents for 1 hour in the dark at RT. Plates were read on BMG Labtech PHERAstar FSX (excitation, 337 nm; emission, 620 and 665 nm). Data analysis was performed using GraphPad Prism.

[6] = 1st hGPR column pair, NA = no activity
[7] = 2nd hGPR column pair, NA = no activity
[8] = 1st mGPR column pair, NA = no activity
[9] = 2nd mGPR column pair, NA = no activity
[10] = 1st GFP column pair, NA = no activity
[11] = 2nd GFP column pair, NA = no activity

COc1ccc(S(=O)(=O)N2C[C@@H](N)[C@H](c3cn(C)c4cnccc34)C2)cc1 [BRD-K00063734-001-02-2]
EC50 [1]: 73.6 µM | EC50 [2]: 63.2 µM

CCN1CCCc2cc(-c3cncn3C(C)CN3CCOCC3)ccc21 (centres unmarked) [BRD-A40378740-001-02-0]
EC50 [1]: > 100 µM | EC50 [2]: > 100 µM

CC(C)CCn1c(Sc2nc3ccccc3s2)nc2c1c(=O)[nH]c(=O)n2C [BRD-K74743357-001-08-3]
EC50 [2]: 77.4 µM

CC(NC(=O)c1ccc2ncccc2c1)c1cc(=O)[nH]c(N2CCN(C)CC2)n1 (centres unmarked) [BRD-A49179268-001-02-5]
EC50 [1]: 83.4 µM | EC50 [2]: 67.5 µM

O=C(CN1CCC(c2ccncc2)CC1)N1CCOCC1 [BRD-K33295678-001-02-9]
EC50 [1]: > 100 µM | EC50 [2]: > 100 µM

O=c1[nH]c2ccccc2c2oc(-c3ccccc3)nc12 [BRD-K66733191-001-02-7]
EC50 [1]: 91.2 µM | EC50 [2]: 71 µM

CS(=O)(=O)N1CCN(c2ccnc3cc(Cl)ccc23)CC1 [BRD-K06900104-001-09-6]
EC50 [1]: 27.5 µM | EC50 [2]: 23 µM

COC(=O)Nc1nc2ccc(-c3n[nH]c(=O)c4ccccc34)cc2[nH]1 [BRD-K25806464-001-09-6]
EC50 [1]: < 10 µM | EC50 [2]: < 10 µM

Cc1cc(C)n(CC(O)CN(Cc2ccco2)Cc2cccc3ncccc23)n1 (centres unmarked) [BRD-A63170499-001-02-6]
EC50 [1]: > 100 µM | EC50 [2]: > 100 µM

CN1CCN(c2ccnc3ccccc23)CC1C(=O)O (centres unmarked) [BRD-A45312230-001-02-1]
EC50 [1]: 1.2 µM | EC50 [2]: 1.3 µM

Clc1ccc2c(N3CCCC4(CCNC4)C3)ccnc2c1 (centres unmarked) [BRD-A50085437-001-02-6]
EC50 [1]: 26.2 µM | EC50 [2]: 33.5 µM

Cc1ccc(C(=O)Cn2c(=O)n(C(C)C)c3nc(-c4ccc(F)cc4)nc(C(N)=O)c32)cc1 [BRD-K81805280-001-02-6]
EC50 [1]: > 100 µM | EC50 [2]: > 100 µM

NC(=O)C1CCN(C(=O)CN2CCN(c3ccnc4cc(Cl)ccc34)CC2)CC1 [BRD-K56344229-001-02-1]
EC50 [1]: 15.6 µM | EC50 [2]: 12.5 µM

CCN1C[C@@H](COC)[C@]2(CCN(C(=O)N3CCCC3)C2)C1 [BRD-K23021624-001-01-8]
EC50 [1]: > 100 µM | EC50 [2]: > 100 µM

Cn1ccc2c(-c3ccc(C(=O)N4CCCC4)cn3)ccnc21 [BRD-K29607656-001-02-7]
EC50 [1]: > 100 µM | EC50 [2]: > 100 µM

Nc1cccnc1Sc1nc2cccnc2s1 [BRD-K10062067-001-02-9]
EC50 [1]: > 100 µM | EC50 [2]: > 100 µM

Nc1ccc2c(C(F)(F)F)cc(=O)oc2c1 [BRD-K20841137-001-08-7]
EC50 [1]: > 100 µM | EC50 [2]: > 100 µM

O=C(O)CCCc1nc(-c2cccnc2)no1 [BRD-K41365409-001-02-6]
EC50 [1]: 41.3 µM | EC50 [2]: 35.7 µM

CCCOc1cc2c(cc1CN(C)Cc1cc(=O)[nH]c3ccccc13)OCO2 [BRD-K37392365-001-02-8]
EC50 [1]: > 100 µM | EC50 [2]: > 100 µM

O=C(CSc1ncnc2sc3c(c12)CCCC3)Nc1nccs1 [BRD-K40136431-001-02-4]
EC50 [2]: > 100 µM

Cc1ccc(NC(=O)c2cnn3c(O)cc(-c4ccc(C5CCCCC5)cc4)nc23)cc1 [BRD5881]
Emax ([3]; first pair): 39.5% | Emax ([3]; second pair): 95.7% | EC50 ([3]; SAR cAMP assay, first EC50/Max pair of hGPR columns): 3.88 µM | EC50 ([3]; SAR cAMP assay, second EC50/Max pair of hGPR columns): 90.6 µM | Emax ([4]; second pair): 9.83% | EC50 ([4]; SAR cAMP assay, second EC50/Max pair of mGPR columns): 0.579 µM | EC50 ([5]; SAR cAMP assay, second EC50/Max pair of GFP control columns): 0.453 µM | Emax ([5]; second pair): 1.64%

Cc1ccc(NC(=O)c2cnn3c(O)cc(-c4ccc(-c5ccccc5)cc4)nc23)cc1 [BRD8716]
EC50 [3, 6]: 0.171 µM | EC50 [3, 7]: 0.284 µM | Emax [3, 6]: 79.2% | Emax [3, 7]: 72.4% | potency and total cAMP production relative to BRD2813 ([3]; receptor not given): improved potency but had little effect on total cAMP production | EC50 [4, 8]: 0.368 µM | EC50 [4, 9]: 0.528 µM | Emax [4, 9]: 33.1% | Emax ([4]; NA = no activity): 40.2% | EC50 [5, 10]: 7.3 µM | Emax [5, 10]: 1.95% | EC50 [5, 11]: 5.6 µM | Emax [5, 11]: 1.51%

Cc1ccc(NC(=O)c2cnn3c(O)cc(-c4ccc(C(F)(F)F)cc4)nc23)cc1 [BRD5668]
EC50 [3, 6]: 0.114 µM | EC50 [3, 7]: 0.587 µM | Emax [3, 6]: 77% | Emax [3, 7]: 70.8% | EC50 [4, 8]: 3.49 µM | EC50 [4, 9]: 6.28 µM | Emax [4, 9]: -22.2% | Emax ([4]; NA = no activity): -22.7% | EC50 [5, 11]: 0.183 µM | Emax [5, 11]: 1.82%

Cc1ccc(NC(=O)c2cnn3c(O)cc(-c4ccc(COC(C)C)cc4)nc23)c(Cl)c1 [BRD5081]
EC50 [3, 6]: 4.26 µM | EC50 [3, 7]: 7.63 µM | Emax [3, 6]: 80.6% | Emax [3, 7]: 63.4% | EC50 [4, 8]: 1.01 µM | EC50 [4, 9]: 1.14 µM | Emax [4, 9]: 60.4% | Emax ([4]; NA = no activity): 66.3% | EC50 [5, 10]: 1.62 µM | Emax [5, 10]: 2.48%

Cc1ccc(NC(=O)c2cnn3c(O)cc(-c4ccc(COC(C)C)cc4)nc23)cn1 [BRD5071]
EC50 [3, 6]: 0.991 µM | EC50 [3, 7]: 1.89 µM | Emax [3, 6]: 74.2% | Emax [3, 7]: 60.4% | EC50 [4, 8]: 1.54 µM | EC50 [4, 9]: 1.61 µM | Emax [4, 9]: 61.2% | Emax ([4]; NA = no activity): 60.5% | EC50 [5, 10]: 24.9 µM | Emax [5, 10]: 8.1%
